Laboratory results as given in patent US7202254B2, “Antibacterial compounds: process for their preparation and pharmaceutical compositions containing them” (Dr. Reddy's Laboratories Limited, priority 2002, dated 2007).
Converted amounts (≈) assume the structure as drawn.

Experiments:
[1] = system: Escherichia coli ATCC 25922; test: MIC by broth microdilution, E coli DRCC 18 (S); format: cell-based; settings: ATCC25922; DRCC 018 = Escherichia coli ATCC 25922, S; Mueller Hinton Broth, overnight 37° C.; read-out: Antimicrobial Screening (MIC) E coli 18 S
Protocol: (§1) Minimum Inhibiton Concentrations (MICs) were determined by broth microdilution technique as per the guidelines prescribed om the fifth edition of Approved Standards, NCCLS document M7-A5 Vol 20-No 2, 2000 Villinova, Pa.
(§2) Initial stock solution of the test compound was prepared in DMSO. Subsequent two fold dilutions were carried out in sterile Mueller Hinton Broth (Difco) (MHB).
(§3) Frozen cultures stocks were inoculated into 50 mL sterile MHB in 250 mL Erlyn Meyer flasks.
(§4) Flasks were incubated for 4 to 5 h at 35° C. on a rotary shaker at 150 rpm. Inoculum was prepared by diluting the culture in sterile MHB to obtain a turbidity of 0.5 McFarland standard. This corresponds to 1–2×10^8 CFU/mL. The stock was further diluted in sterile broth to obtain 1–2×10^6 CFU/mL. 50 μl of the above diluted inoculum was added from 1–10 wells. The plates were incubated overnight at 37° C.

[2] = system: Staphylococcus aureus ATCC 33591; test: MIC by broth microdilution, Staphylococcus aureus DRCC 019 (MRSA); format: cell-based; settings: DRCC 019 = ATCC 33591, MRSA, Mueller Hinton Broth, overnight 37° C., read-out: Antimicrobial Screening (MIC) Staphylococcus aureus 019 MRSA
Protocol: as §1, §2, §3, §4

[3] = system: Enterococcus faecalis NCTC 12201; test: MIC by broth microdilution, Enterococcus sp DRCC 153 (R); format: cell-based; settings: NCTC12201; DRCC 153 = Enterococcus faecalis NCTC 12201, R; Mueller Hinton Broth, overnight 37° C.; read-out: Antimicrobial Screening (MIC) Enterococcus sp 153 R
Protocol: as §1, §2, §3, §4

[4] = system: Staphylococcus aureus ATCC 29213; test: MIC by broth microdilution, Staphylococcus aureus DRCC 035 (S); format: cell-based; settings: ATCC29213, DRCC 035 = ATCC 29213, S, Mueller Hinton Broth, overnight 37° C., read-out: Antimicrobial Screening (MIC) Staphylococcus aureus 035 S
Protocol: as §1, §2, §3, §4

[5] = system: Staphylococcus aureus ATCC 49951; test: MIC by broth microdilution, Staphylococcus aureus DRCC 213 (Smith S); format: cell-based; settings: ATCC49951, DRCC 213 = ATCC 49951, Smith S, Mueller Hinton Broth, overnight 37° C., read-out: Antimicrobial Screening (MIC) Staphylococcus aureus 213 Smith S
Protocol: as §1, §2, §3, §4

[6] = system: Enterococcus faecium NCTC 12202; test: MIC by broth microdilution, Enterococcus sp DRCC 154 (R); format: cell-based; settings: NCTC12202; DRCC 154 = Enterococcus faecium NCTC 12202, R; Mueller Hinton Broth, overnight 37° C.; read-out: Antimicrobial Screening (MIC) Enterococcus sp 154 R
Protocol: as §1, §2, §3, §4

[7] = system: Enterococcus faecalis ATCC 29212; test: MIC by broth microdilution, Enterococcus sp DRCC 034 (S); format: cell-based; settings: ATCC29212; DRCC 034 = Enterococcus faecalis ATCC 29212, S; Mueller Hinton Broth, overnight 37° C.; read-out: Antimicrobial Screening (MIC) Enterococcus sp 034 S
Protocol: as §1, §2, §3, §4

Structure (SMILES): COC(=S)NCc1cn(-c2ccc(N3CCOCC3)c(F)c2)nn1 [Example 55, [1-(3-Fluoro-4-morpholin-4-yl-phenyl)-1H-[1,2,3]triazol-4-ylmethyl]-thiocarbamic acid O-methyl ester]
- MIC [1]: 32 µg/mL (≈ 91.1 µM)
- MIC [2]: 4 µg/mL (≈ 11.4 µM)
- MIC [3]: 4 µg/mL (≈ 11.4 µM)
- melting point: 148 °C
- MIC [4]: 4 µg/mL (≈ 11.4 µM)
- MIC [5]: 4 µg/mL (≈ 11.4 µM)
- MIC [6]: 8 µg/mL (≈ 22.8 µM)

Structure (SMILES): COC(=S)NCc1cn(-c2ccc(N3CCS(=O)(=O)CC3)c(F)c2)nn1 [Example 61, {1-[4-(1,1-Dioxo-1lambda*6*-thiomorpholin-4-yl)-3-fluoro-phenyl]-1H-[1,2,3]triazol-4-ylmethyl}-thiocarbamic acid O-methyl ester]
- MIC [1]: > 32 µg/mL
- MIC [2]: 2 µg/mL (≈ 5.01 µM)
- MIC [3]: 2 µg/mL (≈ 5.01 µM)
- melting point: 184 °C
- MIC [4]: 4 µg/mL (≈ 10 µM)
- MIC [5]: 2 µg/mL (≈ 5.01 µM)
- MIC [6]: 8 µg/mL (≈ 20 µM)
- MIC [7]: 2 µg/mL (≈ 5.01 µM)

Structure (SMILES): COC(=S)NCc1cn(-c2cc(F)c(N3CCS(=O)(=O)CC3)c(F)c2)nn1 [Example 58, {1-[4-(1,1-Dioxo-1lambda*6*-thiomorpholin-4-yl)-3,5-difluoro-phenyl]-1H-[1,2,3]triazol-4-ylmethyl}-thiocarbamic acid O-methyl ester]
- MIC [1]: 32 µg/mL (≈ 76.7 µM)
- MIC [2]: 1 µg/mL (≈ 2.4 µM)
- MIC [3]: 2 µg/mL (≈ 4.79 µM)
- melting point: 162 °C
- MIC [4]: 2 µg/mL (≈ 4.79 µM)
- MIC [5]: 2 µg/mL (≈ 4.79 µM)
- MIC [6]: 4 µg/mL (≈ 9.58 µM)
- MIC [7]: 4 µg/mL (≈ 9.58 µM)

Structure (SMILES): CC(=S)NCc1cn(-c2ccc(N3CCOCC3)c(F)c2)nn1 [Example 52, N-[1-(3-Fluoro-4-morpholin-4-yl-phenyl)-1H-[1,2,3]triazol-4-ylmethyl]-thioacetamide]
- MIC [1]: 256 µg/mL (≈ 763 µM)
- MIC [2]: 2 µg/mL (≈ 5.96 µM)
- MIC [3]: 2 µg/mL (≈ 5.96 µM)
- melting point: 192 °C
- MIC [4]: 2 µg/mL (≈ 5.96 µM)
- MIC [5]: 2 µg/mL (≈ 5.96 µM)
- MIC [6]: 2 µg/mL (≈ 5.96 µM)
- MIC [7]: 2 µg/mL (≈ 5.96 µM)

Structure (SMILES): CC(=S)NCc1cn(-c2cc(F)c(N3CCOCC3)c(F)c2)nn1 [Example 51, N-[1-(3,5-Difluoro-4-morpholin-4-yl-phenyl)-1H-[1,2,3]triazol-4-ylmethyl]-thioacetamide]
- MIC [1]: 32 µg/mL (≈ 90.5 µM)
- MIC [2]: 1 µg/mL (≈ 2.83 µM)
- MIC [3]: 1 µg/mL (≈ 2.83 µM)
- melting point: 190 °C
- MIC [4]: 1 µg/mL (≈ 2.83 µM)
- MIC [5]: 1 µg/mL (≈ 2.83 µM)
- MIC [6]: 2 µg/mL (≈ 5.66 µM)
- MIC [7]: 2 µg/mL (≈ 5.66 µM)

Structure (SMILES): COC(=S)NCc1cn(-c2cc(F)c(N3CCOCC3)c(F)c2)nn1 [Example 54, [1-(3,5-Difluoro-4-morpholin-4-yl-phenyl)-1H-[1,2,3]triazol-4-ylmethyl]-thiocarbamic acid O-methyl ester]
- MIC [1]: 32 µg/mL (≈ 86.6 µM)
- MIC [2]: 2 µg/mL (≈ 5.41 µM)
- MIC [3]: 4 µg/mL (≈ 10.8 µM)
- melting point: 135 °C
- MIC [4]: 4 µg/mL (≈ 10.8 µM)
- MIC [5]: 2 µg/mL (≈ 5.41 µM)
- MIC [6]: 4 µg/mL (≈ 10.8 µM)
- MIC [7]: 4 µg/mL (≈ 10.8 µM)

Structure (SMILES): COC(=S)NCc1cn(-c2ccc(N3CCSCC3)c(F)c2)nn1 [Example 59, [1-(3-Fluoro-4-thiomorpholin-4-yl-phenyl)-1H-[1,2,3]triazol-4-ylmethyl]-thiocarbamic acid O-methyl ester]
- MIC [1]: > 32 µg/mL
- MIC [2]: 2 µg/mL (≈ 5.44 µM)
- MIC [3]: 8 µg/mL (≈ 21.8 µM)
- melting point: 168 °C
- MIC [4]: 4 µg/mL (≈ 10.9 µM)
- MIC [5]: 2 µg/mL (≈ 5.44 µM)
- MIC [6]: 8 µg/mL (≈ 21.8 µM)
- MIC [7]: 8 µg/mL (≈ 21.8 µM)

Structure (SMILES): COC(=S)NCc1cn(-c2ccc(N3CC[S+]([O-])CC3)c(F)c2)nn1 [Example 60, {1-[3-Fluoro-4-(1-oxo-lambda*4*-thiomorpholin-4-yl)-phenyl]-1H-[1,2,3]triazol-4-ylmethyl}-thiocarbamic acid O-methyl ester]
- MIC [1]: > 32 µg/mL
- MIC [2]: 1 µg/mL (≈ 2.61 µM)
- MIC [3]: 1 µg/mL (≈ 2.61 µM)
- melting point: 198 °C
- MIC [4]: 2 µg/mL (≈ 5.22 µM)
- MIC [5]: 1 µg/mL (≈ 2.61 µM)
- MIC [6]: 4 µg/mL (≈ 10.4 µM)
- MIC [7]: 2 µg/mL (≈ 5.22 µM)

Structure (SMILES): COC(=S)NCc1cn(-c2cc(F)c(N3CCSCC3)c(F)c2)nn1 [Example 56, [1-(3,5-Difluoro-4-thiomorpholin-4-yl-phenyl)-1H-[1,2,3]triazol-4-ylmethyl]-thiocarbamic acid O-methyl ester]
- MIC [1]: 32 µg/mL (≈ 83 µM)
- MIC [2]: 1 µg/mL (≈ 2.59 µM)
- MIC [3]: 2 µg/mL (≈ 5.19 µM)
- melting point: 127 °C
- MIC [4]: 2 µg/mL (≈ 5.19 µM)
- MIC [5]: 1 µg/mL (≈ 2.59 µM)
- MIC [6]: 8 µg/mL (≈ 20.8 µM)
- MIC [7]: 2 µg/mL (≈ 5.19 µM)

Structure (SMILES): CSC(=S)NCc1cn(-c2ccc(N3CCOCC3)c(F)c2)nn1 [Example 67, [1-(3-Fluoro-4-morpholin-4-yl-phenyl)-1H-[1,2,3]triazol-4-ylmethyl]-dithiocarbamic acid methyl ester]
- MIC [1]: 32 µg/mL (≈ 87.1 µM)
- MIC [2]: 1 µg/mL (≈ 2.72 µM)
- MIC [3]: 1 µg/mL (≈ 2.72 µM)
- MIC [4]: 1 µg/mL (≈ 2.72 µM)
- MIC [5]: 1 µg/mL (≈ 2.72 µM)
- MIC [6]: 1 µg/mL (≈ 2.72 µM)
- MIC [7]: 1 µg/mL (≈ 2.72 µM)
